Columns and labels:
[1] = biological target: T1, CobR (corrin reductase) (Brucella melitensis, UniProt Q8YHT7); details: crystals grown with 2 mM FAD, pH 4.6; FAD in both active sites; second site (additional folded FAD per subunit)
T1 construct: gene BMEI0709

[2] = biological target: T1, CobR (corrin reductase); details: reference without excess FAD 70 °C, 50 mM NaPi, 100 mM NaCl pH 6.5, 125°/h, irreversible unfolding

T1 sequence (Q8YHT7 1-173): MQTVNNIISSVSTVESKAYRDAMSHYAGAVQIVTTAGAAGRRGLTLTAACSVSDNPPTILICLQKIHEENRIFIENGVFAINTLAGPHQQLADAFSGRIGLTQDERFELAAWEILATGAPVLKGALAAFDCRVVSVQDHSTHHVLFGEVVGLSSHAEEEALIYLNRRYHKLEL

SMILES: Cc1cc2nc3c(=O)[nH]c(=O)nc-3n(C[C@H](O)[C@H](O)[C@H](O)COP(=O)(O)OP(=O)(O)OC[C@H]3O[C@@H](n4cnc5c(N)ncnc54)[C@H](O)[C@@H]3O)c2cc1C [FAD]
- X-ray crystallography, 2.2 Å [1]: FAD is seen occupying both active sites of the homodimer
- apparent Tm with excess FAD [2]: 80 °C

From PMC4083273 (Bioscience Reports, 2014)
